Reference: patent US20250040541A1, “AN ANTIMICROBIAL LIQUID COMPOSITION, PROCESS FOR PREPARING THE SAME AND METHOD OF USE THEREOF” (ISP Investments LLC, priority 2021, published 2025)

Experiments:
Assay type in all cases: cell-based
[1] = tested on: Gram-positive bacteria (Staphylococcus aureus 6538); test: 28-day double inoculation challenge test in sunscreen emulsion base, Gram-positive inoculum
Experimental: (§1) The test was conducted in sunscreen emulsion base, pH 7 (Table 3).
(§2) Method: The emulsion was formulated with 2% of the blend #1 or with the appropriate controls, plus water to add up to the 2% of the concentration in the emulsion.
(§3) Briefly, each tested sample was split into three containers to be challenged, respectively, with either of the three classes of common contaminants: Gram-positive bacteria, Gram-negative bacteria, and fungi. Accordingly, three types of inocula were prepared as outlined in the Table 4. The Gram-positive bacterial inoculum consisted of the single microorganism, while the Gram-negative bacterial inoculum and fungal inoculum, each, consisted of more than one species pooled together (Table 4).
(§4) The test samples were spiked with the microbial inoculum on days 0 and 21, with the final concentration of bacteria being 10^6 cfu/g and the final concentration of fungi being 10^5 cfu/g. Inoculated samples were incubated at ambient temperature. On days 2, 7, 21 and 28 the samples were plated to recover viable microorganisms. Letheen Agar was used for the recovery of bacteria and on Potato Dextrose Agar was used for the recovery of fungi.

[2] = tested on: Fungi (Candida albicans 10231 and Aspergillus brasiliensis 16404); test: 28-day double inoculation challenge test in sunscreen emulsion base, fungal inoculum
Experimental: as §1, §2, §3, §4

[3] = tested on: Gram-negative bacteria (Escherichia coli 8739, Pseudomonas aeruginosa 9027, Burkholderia cepacia 25416); test: 28-day double inoculation challenge test in sunscreen emulsion base, Gram-negative inoculum
Experimental: as §1, §2, §3, §4

[4] = 0.75% active, 1.25% water in sunscreen emulsion base, pH 7, 2 days
[5] = 0.75% active, 1.25% water in sunscreen emulsion base, pH 7, 7 days
[6] = 0.75% active, 1.25% water in sunscreen emulsion base, pH 7, 21 days (before re-inoculation)
[7] = 0.75% active, 1.25% water in sunscreen emulsion base, pH 7, 28 days (7 days after re-inoculation)
[8] = 0.5% active, […] water in sunscreen emulsion base, pH 6.99, 2 days
[9] = 0.5% active, […] water in sunscreen emulsion base, pH 6.99, 7 days
[10] = 0.5% active, […] water in sunscreen emulsion base, pH 6.99, 21 days (before re-inoculation)
[11] = 0.5% active, […] water in sunscreen emulsion base, pH 6.99, 28 days (7 days after re-inoculation)

Structure (SMILES)	plate counts recovered [1, 4]	plate counts recovered [1, 5]	plate counts recovered [1, 6]	plate counts recovered [2, 4]	plate counts recovered [2, 5]	plate counts recovered [2, 6]	plate counts recovered [2, 7]	plate counts recovered [3, 4]	plate counts recovered [3, 5]	plate counts recovered [3, 6]	plate counts recovered [3, 7]	other results
OCCCO [1,3-Propanediol]	>10^4 cfu/g	<10 cfu/g	<10 cfu/g	3.40 × 10^4 cfu/g	1.6 × 10^4 cfu/g	9.5 × 10^4 cfu/g	>10^4 cfu/g	>10^4 cfu/g	<10 cfu/g	<10 cfu/g	2.00 × 10^2 cfu/g	
OCCCc1ccccc1 [Phenylpropanol]	>10^4 cfu/g	<10 cfu/g	<10 cfu/g	3.70 × 10^4 cfu/g	1.80 × 10^4 cfu/g	4.00 × 10^3 cfu/g	>10^4 cfu/g	>10^4 cfu/g	>10^4 cfu/g	6.00 × 10^3 cfu/g	>10^4 cfu/g	plate counts recovered [1, 7]: 1.30 × 10^3 cfu/g
CC(=O)CCc1ccc(O)cc1 [Raspberry ketone, 4-(4-hydroxyphenyl) butan-2-one]												plate counts recovered [1, 8]: >10^4 cfu/g; plate counts recovered [1, 9]: <10 cfu/g; plate counts recovered [1, 10]: <10 cfu/g; plate counts recovered [1, 11]: 2.1 × 10^2 cfu/g; plate counts recovered [2, 8]: 2.4 × 10^4 cfu/g; plate counts recovered [2, 9]: 2.40 × 10^4 cfu/g; plate counts recovered [2, 10]: 4.4 × 10^3 cfu/g; plate counts recovered [2, 11]: >10^4 cfu/g; plate counts recovered [3, 8]: >10^4 cfu/g; plate counts recovered [3, 9]: >10^4 cfu/g; plate counts recovered [3, 10]: 1.3 × 10^3 cfu/g; plate counts recovered [3, 11]: >10^4 cfu/g
